In patent publication US7678810B2, “Thiazole derivative” (Taisho Pharmaceutical Co., Ltd, priority 2004, dated 2010):
Structures can show the parent of a compound that is named as a salt.

SMILES	melting point [°C]
CCC(CC)c1nc(-c2nc(C)cs2)c(-c2ccc3ncsc3c2)[nH]1 (as salt: HCl) [Compound 62]	207 to 212
Cc1csc(-c2nc(CCCCC(=O)Nc3ccccc3)[nH]c2-c2ccc3ncsc3c2)n1 (as salt: HCl) [Compound 172]	105 to 117.5
CCN(CC)C(=O)OCc1nc(-c2nc(C)cs2)c(-c2ccc3ncsc3c2)[nH]1 (as salt: HCl) [Compound 237]	119 to 124
Cc1csc(-c2nc(CCCN3CCOCC3)[nH]c2-c2ccc3c(c2)OCO3)n1 (as salt: salt) [Compound 76]	118.5 to 128.5
NC(=O)c1ccc(-c2nc(-c3nccs3)c(-c3ccc4c(c3)OCO4)[nH]2)cc1 [Compound 2]	240 to 249
NC(=O)c1ccc(-c2nc(-c3nccs3)c(-c3ccccn3)[nH]2)cc1 [Compound 4]	255.5 to 256
CC(O)c1nc(-c2nc(-c3ccc(C(N)=O)cc3)[nH]c2-c2ccc3c(c2)OCO3)cs1 (stereo not drawn) [Compound 6]	140 to 148
CC(=O)c1nc(-c2nc(-c3ccc(C(N)=O)cc3)[nH]c2-c2ccc3c(c2)OCO3)cs1 [Compound 7]	153 to 159
CCc1csc(-c2nc(-c3ccc(C(N)=O)cc3)[nH]c2-c2ccc3c(c2)OCO3)n1 [Compound 11]	259.5 to 261.5
NC(=O)c1ccc(-c2nc(-c3nc(Br)cs3)c(-c3ccc4c(c3)OCO4)[nH]2)cc1 [Compound 13]	273 to 275.5
Cc1csc(-c2nc(-c3ccc(C#N)cc3)[nH]c2-c2ccc(F)cc2)n1 [Compound 17]	283.5 to 286
Cc1csc(-c2nc(-c3ccc(C(N)=O)cc3)[nH]c2-c2ccc(F)cc2)n1 [Compound 18]	281 to 281.5
Cc1csc(-c2nc(N)[nH]c2-c2ccc3c(c2)OCO3)n1 [Compound 19]	205.5 to 208
CC(=O)Nc1nc(-c2nc(C)cs2)c(-c2ccc3c(c2)OCO3)[nH]1 [Compound 20]	169 to 173
Cc1csc(-c2nc(NC(=O)c3ccccc3)[nH]c2-c2ccc3c(c2)OCO3)n1 [Compound 22]	223 to 225
COc1ccc(CC(=O)NCc2nc(-c3nc(C)cs3)c(-c3ccc4c(c3)OCO4)[nH]2)cc1 [Compound 26]	165.5 to 169.5
Cc1csc(-c2nc(CCN)[nH]c2-c2ccc3c(c2)OCO3)n1 [Compound 27]	155.5 to 157.5
CCCC(=O)NCCc1nc(-c2nc(C)cs2)c(-c2ccc3c(c2)OCO3)[nH]1 [Compound 28]	148 to 150
CCCC(=O)NCCCc1nc(-c2nc(C)cs2)c(-c2ccc3c(c2)OCO3)[nH]1 [Compound 30]	134.5 to 138.5
CCCC(=O)NCCCCc1nc(-c2nc(C)cs2)c(-c2ccc3c(c2)OCO3)[nH]1 [Compound 33]	132 to 133
CCCNC(=O)c1nc(-c2nc(C)cs2)c(-c2ccc3c(c2)OCO3)[nH]1 [Compound 35]	199.6 to 200
Cc1csc(-c2nc(C(=O)Nc3ccccc3)[nH]c2-c2ccc3c(c2)OCO3)n1 [Compound 36]	222 to 222.5
CCCNC(=O)CCc1nc(-c2nc(C)cs2)c(-c2ccc3c(c2)OCO3)[nH]1 [Compound 38]	106.5 to 108.5
CCCNC(=O)CCCc1nc(-c2nc(C)cs2)c(-c2ccc3c(c2)OCO3)[nH]1 [Compound 40]	75 to 79
COc1ccc(CNC(=O)CCCCc2nc(-c3nc(C)cs3)c(-c3ccc4c(c3)OCO4)[nH]2)cc1 [Compound 44]	174 to 175

SMILES	melting point [°C]
Cc1csc(-c2nc(-c3ccc(C(N)=O)cc3)[nH]c2-c2ccc(O)cc2)n1 [Compound 49]	> 300
CCCCCCc1nc(-c2nc(C)cs2)c(-c2ccc3ncsc3c2)[nH]1 [Compound 64]	129 to 130.5
CCCC(=O)NCc1nc(-c2nc(C)cs2)c(-c2ccc(O)cc2)[nH]1 [Compound 101]	135.5 to 136.5
CCCC(=O)NCc1nc(-c2nc(C)cs2)c(-c2ccc(OC)c(OCc3ccccc3)c2)[nH]1 [Compound 104]	176 to 177
Cc1csc(-c2nc(CNC(=O)CCCN(C)C)[nH]c2-c2ccc3ncsc3c2)n1 [Compound 116]	200.5 to 205.5
COCCOCC(=O)NCc1nc(-c2nc(C)cs2)c(-c2ccc3ncsc3c2)[nH]1 [Compound 123]	134 to 135.5
COCCCC(=O)NCc1nc(-c2nc(C)cs2)c(-c2ccc3ncsc3c2)[nH]1 [Compound 125]	186.5 to 190
CCCCNC(=O)c1nc(-c2nc(C)cs2)c(-c2ccc3ncsc3c2)[nH]1 [Compound 140]	209.5 to 212.5
COC(=O)CCc1nc(-c2nc(C)cs2)c(-c2ccc3ncsc3c2)[nH]1 [Compound 142]	168.5 to 170.5
Cc1csc(-c2nc(CCC(=O)NC(C)C)[nH]c2-c2ccc3ncsc3c2)n1 [Compound 145]	217.5 to 218
Cc1csc(-c2nc(CCC(=O)NC(C)(C)C)[nH]c2-c2ccc3ncsc3c2)n1 [Compound 147]	201.5 to 202
Cc1csc(-c2nc(CCC(=O)N3CCCCC3)[nH]c2-c2ccc3ncsc3c2)n1 [Compound 148]	179 to 180
Cc1csc(-c2nc(CCC(=O)NCCN(C)C)[nH]c2-c2ccc3ncsc3c2)n1 [Compound 149]	163.5 to 164
Cc1csc(-c2nc(CCC(=O)NCCCN(C)C)[nH]c2-c2ccc3ncsc3c2)n1 [Compound 150]	78.5 to 82.5
Cc1csc(-c2nc(CCC(=O)NCCN3CCCCC3)[nH]c2-c2ccc3ncsc3c2)n1 [Compound 151]	114 to 119
Cc1csc(-c2nc(CCC(=O)NCCN3CCCC3)[nH]c2-c2ccc3ncsc3c2)n1 [Compound 152]	171 to 173
Cc1csc(-c2nc(CCC(=O)NCCCN3CCN(C)CC3)[nH]c2-c2ccc3ncsc3c2)n1 [Compound 153]	188 to 189
Cc1csc(-c2nc(CCC(=O)N3CCN(C)CC3)[nH]c2-c2ccc3ncsc3c2)n1 [Compound 155]	201 to 201.5
Cc1csc(-c2nc(CCC(=O)N3CCN(CCN4CCOCC4)CC3)[nH]c2-c2ccc3ncsc3c2)n1 [Compound 157]	164.5 to 166
Cc1csc(-c2nc(CCC(=O)N3CCN(CCN(C)C)CC3)[nH]c2-c2ccc3ncsc3c2)n1 [Compound 158]	169.5 to 172
Cc1csc(-c2nc(CCC(=O)N3CCOCC3)[nH]c2-c2ccc3c(c2)OCO3)n1 [Compound 161]	216.5 to 218
COCCCNC(=O)CCc1nc(-c2nc(C)cs2)c(-c2ccc3ncsc3c2)[nH]1 [Compound 164]	144.5 to 145
COc1ccc(CNC(=O)CCCCc2nc(-c3nc(C)cs3)c(-c3ccc4ncsc4c3)[nH]2)cc1 [Compound 173]	140 to 140.5
CCCCCNC(=O)NCc1nc(-c2nc(C)cs2)c(-c2ccc3ncsc3c2)[nH]1 [Compound 182]	199 to 201

Next, values leading:

melting point [°C]	SMILES
174 to 175	C=CCOC(=O)NCc1nc(-c2nc(C)cs2)c(-c2ccc3ncsc3c2)[nH]1 (as salt: HCl) [Compound 192]
160 to 160.5	Cc1csc(-c2nc(CNC(=O)CC(C)C)[nH]c2-c2ccc3ncsc3c2)n1 [Compound 107]
199 to 200	Cc1csc(-c2nc(CNC(=O)C3CCC3)[nH]c2-c2ccc3ncsc3c2)n1 [Compound 108]
229 to 229.5	Cc1csc(-c2nc(CNC(=O)C(C)(C)C)[nH]c2-c2ccc3ncsc3c2)n1 [Compound 109]
172.5 to 173.5	Cc1csc(-c2nc(CNC(=O)CCC(C)C)[nH]c2-c2ccc3ncsc3c2)n1 [Compound 110]
212.5 to 213.5	CCC(C)(C)C(=O)NCc1nc(-c2nc(C)cs2)c(-c2ccc3ncsc3c2)[nH]1 [Compound 111]
156.5 to 161	Cc1csc(-c2nc(CNC(=O)C3CCCC3)[nH]c2-c2ccc3ncsc3c2)n1 [Compound 112]
211.5 to 212.5	Cc1csc(-c2nc(CNC(=O)CN(C)C)[nH]c2-c2ccc3ncsc3c2)n1 [Compound 114]
150 to 150.5	Cc1csc(-c2nc(CNC(=O)CCN(C)C)[nH]c2-c2ccc3ncsc3c2)n1 [Compound 115]
204 to 205.5	Cc1csc(-c2nc(CNC(=O)C3CCN(C)CC3)[nH]c2-c2ccc3ncsc3c2)n1 [Compound 117]
200.5 to 203.5	CNCC(=O)NCc1nc(-c2nc(C)cs2)c(-c2ccc3ncsc3c2)[nH]1 [Compound 118]
214.5 to 215	Cc1csc(-c2nc(CNC(=O)CN)[nH]c2-c2ccc3ncsc3c2)n1 [Compound 120]
215 to 218.5	Cc1csc(-c2nc(CNC(=O)CCO)[nH]c2-c2ccc3ncsc3c2)n1 [Compound 122]
193 to 194	Cc1csc(-c2nc(CNC(=O)COCCO)[nH]c2-c2ccc3ncsc3c2)n1 [Compound 126]
154.5 to 155.5	COCCC(=O)NCc1nc(-c2nc(C)cs2)c(-c2ccc3ncsc3c2)[nH]1 [Compound 127]
174 to 175	Cc1csc(-c2nc(CNC(=O)C3CCOC3)[nH]c2-c2ccc3ncsc3c2)n1 (stereo not drawn) [Compound 128]
185 to 185.5	Cc1csc(-c2nc(CNC(=O)C3CCCO3)[nH]c2-c2ccc3ncsc3c2)n1 (stereo not drawn) [Compound 130]
196.5 to 197	Cc1csc(-c2nc(CCC(=O)NC3CC3)[nH]c2-c2ccc3ncsc3c2)n1 [Compound 146]
179.5 to 182	CCCNC(=O)NCc1nc(-c2nc(C)cs2)c(-c2ccc3ncsc3c2)[nH]1 [Compound 177]
178.5 to 180	Cc1csc(-c2nc(CNC(=O)NC(C)C)[nH]c2-c2ccc3ncsc3c2)n1 [Compound 178]
190.5 to 191.5	CCCCNC(=O)NCc1nc(-c2nc(C)cs2)c(-c2ccc3ncsc3c2)[nH]1 [Compound 179]
222.5 to 223	CCN(CC)C(=O)NCc1nc(-c2nc(C)cs2)c(-c2ccc3ncsc3c2)[nH]1 [Compound 181]
185.5 to 188	Cc1csc(-c2nc(CNC(=O)NC3CCCC3)[nH]c2-c2ccc3ncsc3c2)n1 [Compound 183]
